The values below come from patent publication US20050288347A1, “Certain triazole-based compounds, compositions, and uses thereof” (priority 2004, published 2005).

“Also recorded” adds a separate entry of the source.

One assay has as its target protein kinase. Nature of the assay: HTS ATP-utilizing enzyme assay, off-chip mobility-shift format (Caliper HTS 250). Format: biochemical, human. Particulars: kinase(s) for which the compound exhibits protein kinase inhibitory activity; test compound 10 μM; active = greater than three-sigma from the mean activity of inactive compounds. A digest of the protocol:
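Single-point screen at 10 μM compound in HEPES pH 7.5 buffer with Triton X-100 and BSA, 2.5 h at 20–22 °C. Substrate-to-phosphopeptide ratio measured by off-chip microfluidic mobility shift; EDTA wells as 100% and DMSO wells as 0% control, hits called at three-sigma limits.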
Take `Cc1cccc(OCc2nnc(S)n2C2CCCCC2)c1` [4-cyclohexyl-5-(m-tolyloxymethyl)-4H-1,2,4-triazole-3-thiol]: the Kinase result is reported as “GSK3-α; also recorded: CHEK1; also recorded: AURORA-A”.
Still for that read-out and setting: as for `COc1ccc(NCc2nnc(SCC(=O)OC(C)C)n2-c2ccc(OC)cc2)cc1`, the entry is “FYN and CDK2-cyclinE”.
The same measure, in the same setting: the entry for `C=CCn1c(SCC(=O)Nc2cccc([N+](=O)[O-])c2)nnc1-c1ccncc1` is “FYN”; for `CCn1c(SCC(=O)N(c2ccccc2)c2ccccc2)nnc1-c1ccc(O)cc1` it is “SRC”.
On the same count and under the same terms, as for `COc1ccc(NCc2nnc(SCC(=O)Nc3cccc(-c4ccccc4)c3)n2C)cc1`, the entry is “PDGFRR-α and FYN and CHEK2”; as for `O=C(CSc1nncn1-c1cccnc1)Nc1cccc(C(=O)O)c1` [3-(2-(4-(pyridin-3-yl)-4H-1,2,4-triazol-3-ylthio)acetamido)benzoic acid], “AURORA-A”; as for `CC(=O)c1ccc(NC(=O)CSc2nnc(C)n2-c2ccccc2)cc1`, “AKT1”.
`CCOC(=O)c1ccc(NC(=O)CSc2nnc(CNc3ccc(C)cc3)n2CC)cc1`: the Kinase entry was “CHEK2”.
Same read-out and setting: the entry for `CCn1c(COc2ccc(Cl)c(C)c2)nnc1SCC#N` is “AURORA-A”; for `O=C(CSc1nncn1-c1cccnc1)Nc1ccccc1[N+](=O)[O-]` [N-(2-nitrophenyl)-2-(4-(pyridin-3-yl)-4H-1,2,4-triazol-3-ylthio)acetamide] it is “FYN”; for `Cc1ccc(NC(=O)CSc2nnc(CNc3ccc(F)cc3)n2CC2CCCO2)cc1` (centres unmarked) it is “AURORA-A”.
On the same count and under the same terms, as for `Cc1nnc(SCC(=O)N2c3ccccc3Sc3ccccc32)[nH]1` [2-(5-methyl-4H-1,2,4-triazol-3-ylthio)-1-(10H-phenothiazin-10-yl)ethanone], the entry is “MAPKAPK-2 and CDK2-cyclinE and LCK”; as for `O=C(CSc1nnc(-c2cccnc2)n1Cc1ccco1)Nc1nccs1`, “GSK3-α; also recorded: GSK3-β; also recorded: CDK2-cyclinE”.
`CNC(=O)CSc1nnc(-c2ccc(OC)cc2)n1-c1ccccc1`: the Kinase entry is “SYK and PRAK”.
On the same count and under the same terms, as for `Cc1ccc(S(=O)(=O)Nc2ccc(-c3nnc(S)n3C)cc2)cc1`, the entry is “AURORA-A; also recorded: CDK2-cyclinA; also recorded: CHEK2”; as for `CCOC(=O)CN(C(=O)CSc1nnc(-c2ccncc2)n1-c1ccccc1)c1ccccc1`, “PDGFRR-α”; as for `Cn1c(SCC(=O)Nc2nccs2)nnc1-c1cc2ccccc2cc1O`, “GSK3-β; also recorded: GSK3-α”.
Same read-out and setting: the entry for `Cn1c(SCC(=O)Nc2sc3c(c2C#N)CCCC3)nnc1-c1ccc(O)cc1` is “PRAK and CDK2-cyclinE and DYRK2”.
Consider `COc1ccc(NCc2nnc(SCC(=O)N3c4ccccc4Sc4ccccc43)n2-c2ccccc2)cc1`, for which the Kinase entry is listed as “PDGFRR-α”.
The same measure, in the same setting: the entry for `Cc1ccc(-n2c(CNc3cccc(Cl)c3)nnc2SCC(=O)c2ccc(Cl)cc2)cc1` is “LYNA”.
The same measure, in the same setting: as for `Cn1c(SCC(=O)N2CCOCC2)nnc1-c1ccc(O)cc1`, the entry is “AURORA-A”; as for `CNC(=O)CSc1nnc(COc2ccccc2)n1Cc1ccccc1`, “FYN”.
As for `N#CCSc1nnc(-c2cccs2)[nH]1` [2-(5-(thiophen-2-yl)-4H-1,2,4-triazol-3-ylthio)acetonitrile], the Kinase result was “DYRK2; also recorded: FLT-3; also recorded: AURORA-A”.
On the same count and under the same terms, as for `COc1ccc(-n2c(SCC(=O)O)nnc2-c2ccc(NC(=O)c3ccccc3)cc2)cc1`, the entry is “CHEK2”; as for `COc1ccc(-c2nnc(SCC(=O)O)n2-c2ccccc2)cc1OC` [2-(5-(3,4-dimethoxyphenyl)-4-phenyl-4H-1,2,4-triazol-3-ylthio)acetic acid], “FYN”.
Still for that read-out and setting: the entry for `CCOC(=O)CN(C(=O)CSc1nnc(-c2ccc([N+](=O)[O-])cc2)n1C)c1ccccc1` is “PDGFRR-α and FYN”; for `Cc1ccc(NC(=O)CSc2nnc(CNc3cccc(C(F)(F)F)c3)n2-c2ccccc2)cc1` it is “MAPKAPK-2”.
The same measure, in the same setting: the entry for `COC(=O)c1ccccc1NC(=O)CSc1nnc(-c2ccc(O)cc2)n1C` is “GSK3-β; also recorded: GSK3-α”.

Staying with this assay, now noted: test compound 10 μM; active = activity greater than three-sigma from the mean of the predominately inactive population for that enzyme.
Take `COc1ccccc1-n1c(SCC(=O)NN(O)C(=O)c2ccccc2)nnc1-c1ccccc1O`: the “protein kinase against which the compound exhibits inhibitory activity (Table 3)” value was “FYN and FLT-3 and SYK”.
Same read-out and setting: the entry for `Cc1ccc(-n2c(SCc3ccc(C(=O)O)cc3)nnc2-c2ccc(Cl)cc2)cc1` is “SYK”; for `CCC(c1ccccc1)c1nnc(SCc2ccc(C(=O)OC)cc2)[nH]1` (centres unmarked) [methyl 4-((5-(1-phenylpropyl)-4H-1,2,4-triazol-3-ylthio)methyl)benzoate] it is “FLT-3”; for `CSc1nnc(COc2ccccc2C)n1Cc1ccccc1` [4-benzyl-3-(methylthio)-5-(o-tolyloxymethyl)-4H-1,2,4-triazole] it is “MSK2”.
The same measure, in the same setting: as for `COc1ccc(-c2nnc(SCc3ccncc3)[nH]2)cc1` [4-((5-(4-methoxyphenyl)-4H-1,2,4-triazol-3-ylthio)methyl)pyridine], the entry is “FLT-3; also recorded: DYRK2; also recorded: GSK3-α”; as for `FC(F)(F)Oc1ccc(-c2nnc(SCC3CC3)[nH]2)cc1` [3-(cyclopropylmethylthio)-5-(4-(trifluoromethoxy)phenyl)-4H-1,2,4-triazole], “FLT-3; also recorded: AURORA-A”.
As to `CC(C)(C)c1ccc(CSc2nnc(COc3ccc(Cl)cc3)n2-c2ccccc2)cc1`, the “protein kinase against which the compound exhibits inhibitory activity (Table 3)” value is “SYK”.
Consider `CCc1nnc(SCC=C(C)C)n1CCc1ccccc1` [3-ethyl-5-(3-methylbut-2-enylthio)-4-phenethyl-4H-1,2,4-triazole], for which the “protein kinase against which the compound exhibits inhibitory activity (Table 3)” value is given as “GSK3-α”.
On the same count and under the same terms, as for `Cc1ccc(-n2c(SCc3nnc(-c4ccccc4)o3)nnc2-c2ccncc2)cc1`, the entry is “GSK3-β; also recorded: GSK3-α”.
Still for that read-out and setting: the entry for `c1csc(-c2nnc(SCC3CCCCC3)[nH]2)c1` [3-(cyclohexylmethylthio)-5-(thiophen-2-yl)-4H-1,2,4-triazole] is “AURORA-A; also recorded: DYRK2”; for `COc1ccccc1-n1c(SCCN2CCCCC2)nnc1-c1cccnc1` it is “AURORA-A”; for `CCOC(=O)c1ccc(CSc2nnc(-c3ccc([N+](=O)[O-])cc3)[nH]2)o1` it is “AURORA-A”.
Still for that read-out and setting: as for `COc1ccccc1-n1c(SCc2ccccc2Cl)nnc1-c1ccccc1O` [2-(5-(2-chlorobenzylthio)-4-(2-methoxyphenyl)-4H-1,2,4-triazol-3-yl)phenol], the entry is “CDK2-cyclinA and PRAK”; as for `CCc1ccc(OCc2nnc(SCCC(=O)O)n2CC)cc1`, “MSK1”; as for `Cc1ccc(CCn2c(Cc3ccccc3)nnc2SCc2ccccc2)cc1` [3-benzyl-5-(benzylthio)-4-(4-methylphenethyl)-4H-1,2,4-triazole], “FLT-3 and PRAK and AURORA-A”.
As for `Cc1cc(C)nc(SCc2nnc(SCC(=O)NNC(=O)c3ccccc3O)n2C)n1`, the “protein kinase against which the compound exhibits inhibitory activity (Table 3)” value is “FYN and SRC and FLT-3”.
